# Like-named read-outs stand apart in the source and are kept apart here.
# Molecular target: T1, CFTR ΔF508 (Homo sapiens, UniProt P13569, DEL508-508)
# T1 construct: bronchial epithelial cells isolated from CF patients homozygous for the CFTR ΔF508 mutation; McGill University; Asterand; University of North Carolina hAEC-CF; host or cells: primary human bronchial epithelial cells from CF patients homozygous for ΔF508
# Assay: Chronic TECC assay on primary bronchial epithelial cells (corrector, co-corrector and potentiator)
# Format: cell-based
# Method: Primary Bronchial Epithelial Cells Protocol
# The TECC (Tranepithelial Clamp Circuit, EP-design) assay measures the functionality of the cystic fibrosis Transmembrane Conductance regulator (CFTR) by measuring the short circuit current (Isc) generated over the basolateral and apical membrane of lung epithelial cells. In TECC the transepithelial potential PD and transepithelial resistance (Rt)) are measured in an open circuit and transformed to Ieq using Ohm's law. 24 Wells can be measured simultaneously allowing a higher throughput compared to Ussing chambers.
# For this purpose, bronchial epithelial cells isolated from CF patients homozygous for the CFTR ΔF508 mutation (hAEC-CF, Epithelix, Geneva, Switzerland; McGill University, Montreal, Qc; Asterand, Detroit, Mich.; University of North Carolina, Chapel Hill, N.C.) are plated on type IV collagen-coated Transwell® supports (Costar). Human airway epithelia are generated by provision of an air-liquid interface for 21 days to form well-differentiated polarized cultures that resemble in vivo pseudo-stratified ciliated epithelium (Fulcher, M. L., Gabriel, S., Burns, K. A., Yankaskas, J. R., Randell, S. H., 2005. Well-differentiated human airway epithelial cell cultures. Methods Mol. Med. 107, 183-206). The differentiated cells are treated with test corrector compound(s) (corrector alone or in combination with co-corrector, 4-[(2R,4R)-4-({[1-(2,2-difluoro-1,3-benzodioxol-5-yl)cyclopropyl]carbonyl}amino)-7-methoxy-3,4-dihydro-2H-chromen-2-yl]benzoic acid (G924806/A-1618261) (“acute”) or test corrector compounds, co-corrector and potentiator, N-(3-carbamoyl-5,5,7,7-tetramethyl-4,7-dihydro-5H-thieno[2,3-c]pyran-2-yl)-1H-pyrazole-5-carboxamide GLPG1837, (“chronic”) for 24 hours basolaterally to allow sufficient expression of properly folded CFTR protein on the membrane. All compound plates contained negative controls (DMSO) and positive controls (0.15 μM, 4-[(2R,4R)-4-({[1-(2,2-difluoro-1,3-benzodioxol-5-yl)cyclopropyl]carbonyl}amino)-7-(difluoromethoxy)-3,4-dihydro-2H-chromen-2-yl]benzoic acid).
# For electrophysiological recording of the “chronic” experiments, the human airway epithelia are mounted in the TECC heating plate for electrophysiological measurement and kept at 37° C. The epithelia are bathed in a NaCl-Ringer solution (120 mM NaCl, 25 mM NaHCO3, 1.2 mM CaCl2, 1.2 mM MgCl2, 0.8 mM KH2PO4, 0.8 mM K2HPO4, pH 7.4, 5 mM glucose) on both the basolateral and apical sides. Test compounds (corrector, co-corrector, 4-[(2R,4R)-4-({[1-(2,2-difluoro-1,3-benzodioxol-5-yl)cyclopropyl]carbonyl}amino)-7-(difluoromethoxy)-3,4-dihydro-2H-chromen-2-yl]benzoic acid, and potentiator, N-(3-carbamoyl-5,5,7,7-tetramethyl-4,7-dihydro-5H-thieno[2,3-c]pyran-2-yl)-1H-pyrazole-5-carboxamide), are re-added to the recording solution prior to measurement. Apical amiloride is used to inhibit the endogenous ENaC currents while forskolin is applied on both apical and basolateral side to stimulate CFTR. Measurements are done during a 20 minute timeframe with recordings every 2 minutes. The increase in Ieq is used as a measure for the increased CFTR activity, EC50 values can be generated by measuring impact of different concentrations of compound on Ieq on primary cells, for this purpose each transwell is treated with a different compound concentration. Inhibitor-172, an inhibitor specific for CFTR, is used to test the specificity of the tested compounds. Raw data were normalized to percentage activity values using the equation: 100×(Sample−Negative control)/(Positive control−Negative Control).
# [1] = chronic TECC, AUC = full area under the curve upon forskolin stimulation, with co-corrector and potentiator, 24 hours
# [2] = chronic TECC, Ieq = calculations based on the maximum current, with co-corrector and potentiator, 24 hours
# [3] = chronic TECC, Ieq = calculations based on the maximum current, with co-corrector and potentiator, 24 hours, read-out: EC50 (nM) (Ieq)
# [4] = chronic TECC, AUC = full area under the curve upon forskolin stimulation, with co-corrector and potentiator, 24 hours, read-out: EC50 (nM) (AUC)
# T1 sequence (P13569 with tags, fused parts or gaps DEL508-508): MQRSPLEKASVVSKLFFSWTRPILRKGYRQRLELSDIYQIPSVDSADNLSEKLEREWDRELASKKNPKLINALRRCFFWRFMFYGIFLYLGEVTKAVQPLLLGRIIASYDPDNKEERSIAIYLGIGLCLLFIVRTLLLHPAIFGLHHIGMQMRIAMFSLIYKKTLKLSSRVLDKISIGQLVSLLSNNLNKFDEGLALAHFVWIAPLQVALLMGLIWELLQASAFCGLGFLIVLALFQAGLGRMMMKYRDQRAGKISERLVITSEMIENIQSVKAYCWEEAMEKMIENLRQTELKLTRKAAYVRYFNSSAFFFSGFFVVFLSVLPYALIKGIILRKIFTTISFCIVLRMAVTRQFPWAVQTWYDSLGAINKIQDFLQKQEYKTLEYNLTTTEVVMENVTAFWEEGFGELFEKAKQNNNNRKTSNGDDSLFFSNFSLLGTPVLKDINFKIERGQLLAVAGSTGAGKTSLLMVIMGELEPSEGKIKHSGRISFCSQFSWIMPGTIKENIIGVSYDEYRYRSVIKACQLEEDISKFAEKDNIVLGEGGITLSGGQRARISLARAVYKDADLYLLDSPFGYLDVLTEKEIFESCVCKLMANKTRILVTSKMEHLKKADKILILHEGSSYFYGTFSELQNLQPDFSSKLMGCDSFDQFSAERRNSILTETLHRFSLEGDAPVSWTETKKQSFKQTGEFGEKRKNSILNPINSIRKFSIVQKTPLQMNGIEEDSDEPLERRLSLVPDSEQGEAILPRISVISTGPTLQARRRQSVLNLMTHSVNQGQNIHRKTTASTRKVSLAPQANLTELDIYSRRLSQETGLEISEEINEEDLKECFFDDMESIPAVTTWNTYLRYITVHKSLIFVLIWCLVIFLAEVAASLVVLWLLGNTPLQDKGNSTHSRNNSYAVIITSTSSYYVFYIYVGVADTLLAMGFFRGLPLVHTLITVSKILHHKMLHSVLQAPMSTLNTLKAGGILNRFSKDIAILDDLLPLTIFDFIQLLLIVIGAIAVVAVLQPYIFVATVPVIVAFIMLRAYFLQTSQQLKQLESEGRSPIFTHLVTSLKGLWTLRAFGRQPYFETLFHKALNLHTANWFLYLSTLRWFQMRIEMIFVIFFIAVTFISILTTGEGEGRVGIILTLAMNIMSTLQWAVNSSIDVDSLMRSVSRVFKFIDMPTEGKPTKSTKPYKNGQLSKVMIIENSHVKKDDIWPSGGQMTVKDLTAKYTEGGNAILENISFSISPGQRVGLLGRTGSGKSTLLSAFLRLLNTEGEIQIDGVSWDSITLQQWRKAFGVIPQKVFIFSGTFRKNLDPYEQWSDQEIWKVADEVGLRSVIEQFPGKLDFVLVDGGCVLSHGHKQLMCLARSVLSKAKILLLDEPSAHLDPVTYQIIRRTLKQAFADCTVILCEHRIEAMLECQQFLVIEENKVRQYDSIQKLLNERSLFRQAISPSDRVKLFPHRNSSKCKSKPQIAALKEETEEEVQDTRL
compound,measurement,setting,value
"O=C(O)c1cc(N2CCC(CCN3CCOCC3)CC2)c2c(C3CCC3)nn(-c3ccccc3)c2n1 [compound 575, 3-cyclobutyl-4-{4-[2-(morpholin-4-yl)ethyl]piperidin-1-yl}-1-phenyl-1H-pyrazolo[3,4-b]pyridine-6-carboxylic acid]",EC50,,100 nM
same,% Activity at 1 μM (AUC**),[1],290%
"COCC1CCN(c2cc(C(=O)O)nc3c2c(C(C)C)nn3-c2cccc(C)c2)CC1 [compound 227, 4-[4-(methoxymethyl)piperidin-1-yl]-1-(3-methylphenyl)-3-(propan-2-yl)-1H-pyrazolo[3,4-b]pyridine-6-carboxylic acid]",% Activity at 1 μM (Ieq*),[2],300%
same,EC50,[3],30 nM
"COC1CCN(c2cc(C(=O)O)nc3c2c(C(C)C)nn3-c2cccc(C)c2)CC1 [compound 192, 4-(4-methoxypiperidin-1-yl)-1-(3-methylphenyl)-3-(propan-2-yl)-1H-pyrazolo[3,4-b]pyridine-6-carboxylic acid]",% Activity at 1 μM (Ieq*),[2],235%
same,EC50,[3],< 30 nM
"O=C(O)c1cc(N2CCC(N3CCOCC3)CC2)c2c(C3CCC3)nn(-c3cccc(OC(F)F)c3)c2n1 [compound 910, 3-cyclobutyl-1-[3-(difluoromethoxy)phenyl]-4-[4-(morpholin-4-yl)piperidin-1-yl]-1H-pyrazolo[3,4-b]pyridine-6-carboxylic acid]",% Activity at 3 μM (AUC),[1],531.5026%
"CC(C)c1nn(-c2ccc(F)cc2)c2nc(C(=O)O)cc(N3CCC(C(C)(C)O)CC3)c12 [compound 656, 1-(4-fluorophenyl)-4-[4-(2-hydroxypropan-2-yl)piperidin-1-yl]-3-(propan-2-yl)-1H-pyrazolo[3,4-b]pyridine-6-carboxylic acid]",EC50,[4],48 nM
"O=C(O)c1cc(N2CCC(CN3CCCC3)CC2)c2c(C3CCC3)nn(-c3ccccc3)c2n1 [compound 557, 3-cyclobutyl-1-phenyl-4-{4-[(pyrrolidin-1-yl)methyl]piperidin-1-yl}-1H-pyrazolo[3,4-b]pyridine-6-carboxylic acid]",% Activity at 1 μM (AUC**),[1],262%
same,% Activity at 3 μM (AUC),[1],384%
"CN1CCC2(CC1)CCN(c1cc(C(=O)O)nc3c1c(C1CCC1)nn3-c1ccccc1)CC2 [compound 699, 3-cyclobutyl-4-(9-methyl-3,9-diazaspiro[5.5]undecan-3-yl)-1-phenyl-1H-pyrazolo[3,4-b]pyridine-6-carboxylic acid]",EC50,[4],162 nM
"COCCN1CCC2(CC1)CCN(c1cc(C(=O)O)nc3c1c(C1CCC1)nn3-c1ccc(F)cc1)CC2 [compound 897, 3-cyclobutyl-1-(4-fluorophenyl)-4-[9-(2-methoxyethyl)-3,9-diazaspiro[5.5]undecan-3-yl]-1H-pyrazolo[3,4-b]pyridine-6-carboxylic acid]",% Activity at 1 μM (AUC**),[1],375%
"O=C(O)c1cc(N2CCC(N3CCOCC3)CC2)c2c(C3CCC3)nn(-c3ccccc3)c2n1 [compound 560, 3-cyclobutyl-4-[4-(morpholin-4-yl)piperidin-1-yl]-1-phenyl-1H-pyrazolo[3,4-b]pyridine-6-carboxylic acid]",EC50,,< 30 nM
"CC(C)c1nn(-c2ccc(F)cc2)c2nc(C(=O)O)cc(N3CCC(N4CCN(C5CC5)CC4)CC3)c12 [compound 754, 4-[4-(4-cyclopropylpiperazin-1-yl)piperidin-1-yl]-1-(4-fluorophenyl)-3-(propan-2-yl)-1H-pyrazolo[3,4-b]pyridine-6-carboxylic acid]",% Activity at 1 μM (AUC**),[1],190%
"CN(C)C[C@@H](F)C1CCN(c2cc(C(=O)O)nc3c2c(C2CCC2)nn3-c2ccccc2)CC1 [compound 456, 3-cyclobutyl-4-{4-[(1S)-2-(dimethylamino)-1-fluoroethyl]piperidin-1-yl}-1-phenyl-1H-pyrazolo[3,4-b]pyridine-6-carboxylic acid]",EC50,[4],120 nM
"COC1CCN(C2CCN(c3cc(C(=O)O)nc4c3c(C3CCC3)nn4-c3ccc(F)cc3)CC2)CC1 [compound 892, 3-cyclobutyl-1-(4-fluorophenyl)-4-(4-methoxy[1,4′-bipiperidin]-1′-yl)-1H-pyrazolo[3,4-b]pyridine-6-carboxylic acid]",% Activity at 1 μM (AUC**),[1],188.3291%
same,EC50,[4],900 nM
"CC(C)c1nn(-c2cccc(N3CCOCC3)n2)c2nc(C(=O)O)cc(-c3ccc(N4CCOCC4)cc3)c12 [compound 244, 4-[4-(morpholin-4-yl)phenyl]-1-[6-(morpholin-4-yl)pyridin-2-yl]-3-(propan-2-yl)-1H-pyrazolo[3,4-b]pyridine-6-carboxylic acid]",% Activity at 1 μM (Ieq*),[2],210%
same,EC50,[3],< 30 nM
"O=C(O)c1cc(N2CCC3(CC2)CCN(C2CCC2)CC3)c2c(C3CCC3)nn(-c3ccc(F)cc3)c2n1 [compound 894, 3-cyclobutyl-4-(9-cyclobutyl-3,9-diazaspiro[5.5]undecan-3-yl)-1-(4-fluorophenyl)-1H-pyrazolo[3,4-b]pyridine-6-carboxylic acid]",% Activity at 1 μM (AUC**),[1],300%
"O=C(O)c1cc(N2CCC(N3CCC(O)CC3)CC2)c2c(C3CCC3)nn(-c3ccc(F)cc3)c2n1 [compound 898, 3-cyclobutyl-1-(4-fluorophenyl)-4-(4-hydroxy[1,4′-bipiperidin]-1′-yl)-1H-pyrazolo[3,4-b]pyridine-6-carboxylic acid]",% Activity at 3 μM (AUC),[1],150.7853%
same,EC50,[4],2640 nM
"CO[C@@H]1CCN(CC2CCN(c3cc(C(=O)O)nc4c3c(C3CCC3)nn4-c3ccccc3)CC2)C1 [compound 803, 3-cyclobutyl-4-(4-{[(3R)-3-methoxypyrrolidin-1-yl]methyl}piperidin-1-yl)-1-phenyl-1H-pyrazolo[3,4-b]pyridine-6-carboxylic acid]",% Activity at 1 μM (AUC**),[1],161.4501%
"COCCN1CCN(c2ccc(-c3cc(C(=O)O)nc4c3c(C3CCC3)nn4C3CCCCC3)cn2)CC1 [compound 878, 3-cyclobutyl-1-cyclohexyl-4-{6-[4-(2-methoxyethyl)piperazin-1-yl]pyridin-3-yl}-1H-pyrazolo[3,4-b]pyridine-6-carboxylic acid]",% Activity at 1 μM (AUC**),[1],170%
"COC[C@H]1CCN(CC2CCN(c3cc(C(=O)O)nc4c3c(C3CCC3)nn4-c3ccccc3)CC2)C1 [compound 804, 3-cyclobutyl-4-(4-{[(3S)-3-(methoxymethyl)pyrrolidin-1-yl]methyl}piperidin-1-yl)-1-phenyl-1H-pyrazolo[3,4-b]pyridine-6-carboxylic acid]",% Activity at 1 μM (AUC**),[1],290%
"CC(C)c1nn(-c2ccc(F)cc2)c2nc(C(=O)O)cc(N3CCC(CN4CCCCC4)CC3)c12 [compound 790, 1-(4-fluorophenyl)-4-{4-[(piperidin-1-yl)methyl]piperidin-1-yl}-3-(propan-2-yl)-1H-pyrazolo[3,4-b]pyridine-6-carboxylic acid]",% Activity at 1 μM (AUC**),[1],220%
same,EC50,[4],120 nM
"CCOC(=O)N1CCN(c2cc(C(=O)O)nc3c2c(C2CCC2)nn3-c2ccccc2)CC1 [compound 539, 3-cyclobutyl-4-[4-(ethoxycarbonyl)piperazin-1-yl]-1-phenyl-1H-pyrazolo[3,4-b]pyridine-6-carboxylic acid]",% Activity at 1 μM (AUC**),[1],557%
"O=C(O)c1cc(N2CCC(CCN3CCCC3)CC2)c2c(C3CCC3)nn(-c3ccccc3)c2n1 [compound 574, 3-cyclobutyl-1-phenyl-4-{4-[2-(pyrrolidin-1-yl)ethyl]piperidin-1-yl}-1H-pyrazolo[3,4-b]pyridine-6-carboxylic acid]",% Activity at 1 μM (AUC**),[1],190%
